In US8129425B2, “Small organic molecule regulators of cell proliferation” (Curis, Inc., priority 2000, dated 2012):
Entries after “also recorded” stand apart in the source; their conditions may differ.

Tests used:
[1] = tested on: cerebellar neuron precursors; assay: Cerebellar neuron precursor proliferation (3H-thymidine incorporation); assay type: cell-based, rat; details: for induction of 3H thymidine incorporation: absence of Shh
Description: In order to test the efficacy of Hedgehog signaling agonists, the ability of the agonists to stimulate the proliferation of cerebellar neuron precursors was determined. Cerebellar granule neuron precursors are known to respond to Hh protein by proliferating. To test the agonists, cerebellar neurons were dissected out of postnatal (one week) rat brains, and placed into primary cell culture. Treatment agents were added once, on the first day of culture (0 DIV). Cells were left in culture until 2 DIV, when 3H-thymidine was added for 5 hours; the amount of incorporation by the cells of this 3H-thymidine provides a measure of the level of proliferation of the cells. Cells were then lysed, and the incorporation of 3H-thymidine was determined. The positive control was Hh protein, at 1.0 μg/ml final concentration. Hh protein alone caused approximately a 20-fold increase in 3H-thymidine incorporation, consistent with the known ability of Shh to stimulate proliferation of these cells. Non-Hh-protein-stimulated cells, including cells treated with control vehicle (DMSO), had very low levels of proliferation. […] At 5.0 μM, the p-cyanophenyl compound B caused 10.2-fold induction of 3H-thymidine incorporation. […] At 1.0, 0.3, or 0.1 μM, D caused 16-, 17-, or 13-fold induction, respectively, of 3H thymidine incorporation into the cells.

[2] = tested on: patched (ptc-lacZ β-galactosidase reporter); assay: Ptc-lacZ reporter mice assay (X-gal staining of tissues); assay type: in vivo
Description: Mice with a β-galactosidase transgene (ptc-lacZ mice) under the regulatory control of the patched locus express the β-galactosidase protein in the same cells where the endogenous mouse patched gene is expressed. The β-galactosidase protein can thus be used as a faithful reporter of the expression of the endogenous patched gene.
Ptc-lacZ mice were divided into four treatment groups and were treated with the following compounds or combinations of compounds for four days, beginning on the first day after birth (dipal-Shh=dipalmitoylated Sonic hedgehog):
The vehicle for the agonist was 10% DMSO in PBS (pH 7.2). The agonist was injected from a 4.67 mM stock dissolved in the vehicle solution.
18 hours following the last injections, the mice were sacrificed and the following tissues were collected: skull, kidney, lung, scapula, skin and heart. All tissues were fixed in 0.2% glutaraldehyde, 5 mM EDTA (pH 8.0), 20 mM MgCl2, 100 mM Na2HPO4 for 30 minutes before staining in 1 mg/ml X-gal, 12.5 mM potassium ferrocyanide, 12.5 mM potassium ferricyanide, 2 mM MgCl2, 0.01% deoxycholate, 0.02% NP-40, and 100 mM Na2HPO4 for 30 hours. Tissues were judged for relative intensity and photographed.
FIG. 42: Ptc-lacZ mice were divided into two treatment groups and were treated with the following compounds for three days, beginning on the first day after birth:
The vehicle for the agonist was 10% DMSO in PBS (pH 7.2). The agonist was injected from a 1.0 mM stock dissolved in the vehicle solution.
Eighteen hours following the last injections, the mice were sacrificed and the forelimbs were collected and processed as described above.
In a third experiment, Ptc-lacZ mice were divided into five treatment groups and were treated with the following compounds for four days, beginning on the first day after birth:
The vehicle for the agonist was 10% DMSO in PBS (pH 7.2). The agonist was injected from stocks of 0.3, 0.1 and 0.03 mM dissolved in the vehicle solution.

Which results are given for `CNC1CCC(N(Cc2ccc(OC)c(-c3ccc(C#N)cc3)c2)C(=O)c2sc3ccccc3c2Cl)CC1` (stereo not drawn) [D]?
induction of 3H thymidine incorporation ([1]; 0.1 μM): 13 fold; induction of 3H thymidine incorporation ([1]; 0.3 μM): 17 fold; induction of 3H thymidine incorporation ([1]; 1.0 μM): 16 fold; stimulation of 3H-thymidine incorporation ([1]; absence of Hh protein treatment): strongly stimulated 3H-thymidine incorporation; upregulation of hedgehog pathway in forelimbs (β-galactosidase staining) ([2]; 0.1 mg/kg/injection 4X/day, four days): very weak upregulation; upregulation of hedgehog pathway in forelimbs (β-galactosidase staining) ([2]; 0.3 mg/kg/injection 4X/day, four days): greater than that seen with injections of Hh protein at 10 mg/kg/injection; upregulation of hedgehog pathway in forelimbs (β-galactosidase staining) ([2]; 0.9 mg/kg/injection 4X/day, four days): highest levels of upregulation; also recorded: greater than that seen with injections of Hh protein at 10 mg/kg/injection; upregulation of hedgehog pathway in forelimbs (β-galactosidase staining) ([2]; 4 mg/kg/injection 4X/day, three days, absence of dipal-Shh): strong upregulation in the nerves, blood vessels, cartilage, and connective tissue; also recorded: greater than that seen with injections of dipal-Shh at 10 mg/kg/injection; dose dependence of hedgehog pathway upregulation in vivo ([2]; 0.1-0.9 mg/kg/injection 4X/day): dose-responsive manner
